Assay results as given in BindingDB's records for doi:10.1021/jm400664x (Washington University, 2013).

These molecules were tested against T1, Vesicular acetylcholine transporter (Homo sapiens, UniProt Q16572) (assay: Displacement of (-)-[3H]vesamicol from human VAChT expressed in rat PC12 cell membrane after 20 hrs).
T1 sequence (Q16572 whole entry): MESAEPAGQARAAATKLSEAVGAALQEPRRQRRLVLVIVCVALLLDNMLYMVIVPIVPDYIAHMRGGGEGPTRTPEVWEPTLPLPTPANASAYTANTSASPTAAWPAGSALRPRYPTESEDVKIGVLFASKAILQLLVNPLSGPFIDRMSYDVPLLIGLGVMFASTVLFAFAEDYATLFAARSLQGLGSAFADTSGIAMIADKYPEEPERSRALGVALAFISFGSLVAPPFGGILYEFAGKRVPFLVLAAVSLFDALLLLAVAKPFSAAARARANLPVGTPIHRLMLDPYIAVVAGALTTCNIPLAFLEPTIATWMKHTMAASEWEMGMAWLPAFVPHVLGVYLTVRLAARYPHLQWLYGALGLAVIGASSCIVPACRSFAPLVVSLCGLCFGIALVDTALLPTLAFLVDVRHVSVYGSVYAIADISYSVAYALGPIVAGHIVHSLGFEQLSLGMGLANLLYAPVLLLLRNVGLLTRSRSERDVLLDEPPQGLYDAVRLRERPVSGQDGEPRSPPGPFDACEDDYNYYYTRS

| Compound | Ki [nM] |
| --- | --- |
| Cn1cccc1C(=O)C1CCN([C@@H]2Cc3c(N)cccc3C[C@H]2O)CC1 | 39 |
| Cn1cccc1C(=O)C1CCN([C@@H]2Cc3ccccc3C[C@H]2O)CC1 | 18 |
| Cn1cccc1C(=O)C1CCN([C@@H]2Cc3cccc(N)c3C[C@H]2O)CC1 | 2310 |
| O=C(c1ccc(OCCF)nc1)C1CCN([C@@H]2Cc3ccccc3C[C@H]2O)CC1 | 38 |
| O=C(c1cccnc1F)C1CCN([C@@H]2Cc3ccccc3C[C@H]2O)CC1 | 13 |
| Cn1ccc(C(=O)C2CCN([C@@H]3Cc4ccccc4C[C@H]3O)CC2)cc1=O | 66 |
| O=C(c1cccnc1)C1CCN([C@@H]2Cc3ccccc3C[C@H]2O)CC1 | 24 |
| CN(C)c1ccc(C(=O)C2CCN([C@@H]3Cc4ccccc4C[C@H]3O)CC2)cc1 | 0.93 |
| Cn1ccc(C(=O)C2CCN([C@@H]3Cc4ccccc4C[C@H]3O)CC2)c1 | 27 |
| CNc1ccc(C(=O)C2CCN([C@@H]3Cc4ccccc4C[C@H]3O)CC2)cc1 | 3 |
| O=C(c1cncc(F)c1)C1CCN([C@@H]2Cc3ccccc3C[C@H]2O)CC1 | 10 |
| COc1cccnc1C(=O)C1CCN([C@@H]2Cc3ccccc3C[C@H]2O)CC1 | 121 |
| O=C(c1ncccc1OCCF)C1CCN([C@@H]2Cc3ccccc3C[C@H]2O)CC1 | 76 |
| O=C(c1ccc(F)nc1)C1CCN([C@@H]2Cc3ccccc3C[C@H]2O)CC1 | 26 |
| Cn1c(C(=O)C2CCN([C@@H]3Cc4ccccc4C[C@H]3O)CC2)cccc1=O | 182 |
